Laboratory results as given in US20240181092A1, “DIAGNOSTIC METHODS OF PROSTATE CANCER” (NOVARTIS AG, priority 2021, published 2024).
Entries after “also recorded” stand apart in the source; their conditions may differ. Where two headings read alike, the source gives them in different places.

Key:
[1] = versus urea-based PET compounds; cited from earlier work
PSMA [2] = molecular target: T1, PSMA (Homo sapiens, UniProt Q04609); design: The [^18F]CTT1057 Phase-I study in 20 prostate cancer patients; from tissue; host or cells: tumour lesions in prostate cancer patients, imaged in vivo by PET; results quoted from Behr et al 2019 and Behr et al 2017; details: cited from earlier work
[3] = Phase I, 20 prostate cancer patients (n=5 primary staging, n=15 mCRPC), approx. 370 MBq i.v.; cited from earlier work
[4] = Human dosimetry in the Phase I study; type: in vivo; details: i.v. administration of 370 MBq
Excerpt: For PET diagnostic radiopharmaceuticals, only a single administration is required, usually intravenously. The investigational PET radiopharmaceutical [^18F]CTT1057 will be administered accordingly, as a single intravenous (i.v.) dose of approximately 370 MBq (266-407 MBq). […] Eur J Nucl Med Mol Imaging; 42:328-54). Human dosimetry was studied in the Phase I study. The effective dose was estimated at 0.023±0.007 mSv/MBq, which is in line as well with the effective dose of the commercial product [18F]FDG (0.019 mSv/MBq) according to the EANM guideline (Boellaard R, Delgado-Bolton R, Oyen WJG, et al (2015) FDG PET/CT: EANM procedure guidelines for tumour imaging: version 2.0. Eur J Nucl Med Mol Imaging; 42:328-54) and in other publications (0.020-0.025 mSv/MBq) (Kaushik A, Jaimini A, Tripathi M, et al (2015) Estimation of radiation dose to patients from (18) FDG whole body PET/CT investigations using dynamic PET scan protocol. Indian J Med Res; 142:721-31), as well as the effective dose of other PSMA PET agents (Behr SC, Aggarwal R, VanBrocklin HF, et al (2019) Phase I Study of CTT1057, an 18F-Labeled Imaging Agent with Phosphoramidate Core Targeting Prostate-Specific Membrane Antigen in Prostate Cancer. J Nucl Med; 60(7):910-6). The radiation dose estimated from an i.v. administration of 370 MBq of [18F]CTT1057 is 8.51 mSV. […]

[5] = human dosimetry, Phase I study; cited from earlier work
PSMA [6] = molecular target: T1, PSMA; details: phosphoramidate scaffold, irreversible binding; cited from earlier work
prostate cancer tumors = details: cited from earlier work
[7] = retrospective analysis of 1007 participants; cited from earlier work
[8] = cited from earlier work

T1 sequence (Q04609 whole entry): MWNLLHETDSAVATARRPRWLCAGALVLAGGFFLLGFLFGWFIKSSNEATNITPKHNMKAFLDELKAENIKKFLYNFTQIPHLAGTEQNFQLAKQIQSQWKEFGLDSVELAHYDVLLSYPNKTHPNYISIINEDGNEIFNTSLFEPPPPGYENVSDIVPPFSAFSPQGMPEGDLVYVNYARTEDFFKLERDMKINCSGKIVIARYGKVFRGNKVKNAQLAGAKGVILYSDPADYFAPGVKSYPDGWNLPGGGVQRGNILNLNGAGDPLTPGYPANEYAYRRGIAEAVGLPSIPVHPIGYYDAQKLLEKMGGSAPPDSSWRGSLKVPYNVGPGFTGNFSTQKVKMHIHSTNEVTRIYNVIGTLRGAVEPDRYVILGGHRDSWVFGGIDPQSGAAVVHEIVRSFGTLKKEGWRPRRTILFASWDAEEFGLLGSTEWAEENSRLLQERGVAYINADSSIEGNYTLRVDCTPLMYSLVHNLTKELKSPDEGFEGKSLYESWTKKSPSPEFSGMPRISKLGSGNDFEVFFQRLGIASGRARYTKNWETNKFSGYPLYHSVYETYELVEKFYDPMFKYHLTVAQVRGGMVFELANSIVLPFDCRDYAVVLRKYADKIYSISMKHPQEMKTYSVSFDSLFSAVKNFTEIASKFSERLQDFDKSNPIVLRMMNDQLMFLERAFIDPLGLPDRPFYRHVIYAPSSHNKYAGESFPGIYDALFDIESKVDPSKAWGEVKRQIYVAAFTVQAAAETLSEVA

SMILES: O=C(O)CC[C@H](NP(=O)(O)OCCC[C@H](NC(=O)CC[C@H](NC(=O)CCCCCNC(=O)c1ccc([18F])cc1)C(=O)O)C(=O)O)C(=O)O [[^18F]CTT1057]
- exposure to kidneys and salivary glands [1]: lower exposure to kidneys and salivary glands
- sensitivity of detection of metastatic lesions versus conventional imaging (PSMA [2]; Phase I study): higher sensitivity
- image quality versus [68Ga]Ga-PSMA-11 PET (PSMA [2]; another smaller study (Behr et al 2017)): qualitatively similar
- image quality on a Visual Analog Scale (VAS) of 1 to 100 (PSMA [2]; approx. 370 MBq i.v., 1=nondiagnostic, 100=perfect study, rated by 2 Nuclear Medicine physicians): 76±5.4
- safety and tolerability [3]: acceptable safety profile without any radiotracer-related adverse reactions; also recorded: safe and well tolerated; also recorded: acceptable safety profile, without any radiotracer-related adverse reactions; also recorded: study has shown an acceptable safety profile without any radiotracer-related
- radiation dose estimated from an i.v. administration [4]: 8.51 mSV
- effective dose [5]: 0.023±0.007 mSv/MBq
- binding affinity to PSMA (PSMA [6]): irreversibly binds to PSMA with high nanomolar affinity

SMILES: O=C([O-])CN(CCN(CC(=O)[O-])Cc1cc(CCC(=O)NCCCCCC(=O)NCCCC[C@H](NC(=O)N[C@@H](CCC(=O)O)C(=O)O)C(=O)O)ccc1[O-])Cc1cc(CCC(=O)O)ccc1[O-].[68Ga+3].[OH3+] [[^68Ga]Ga-PSMA-11]
- detection rates versus [18F]Fluciclovine (prostate cancer tumors; after radical prostatectomy, PSA <2.0 ng/ml, per-patient and per-region basis (Calais et al 2018)): superior
- overall detection rate for prostate cancer recurrence versus [18F]Fluciclovine (prostate cancer tumors; larger prospective head-to-head study (Pernthaler et al 2019)): no statistical differences
- tolerability, adverse events following infusion [7]: well tolerated with no adverse events following infusion

SMILES: OC[C@H]1OC(O)[C@H]([18F])[C@@H](O)[C@@H]1O (stereo partly shown) [[18F]FDG, [18F]Fluorodeoxyglucose]
- effective dose ([8]; according to the EANM guideline): 0.019 mSv/MBq
- effective dose ([8]; other publications (Kaushik et al 2015)): 0.020-0.025 mSv/MBq
